Reference: article PMC11497264 (Chembiochem, 2024)
Like-named read-outs stand apart in the source and are kept apart here. Bridge positions count the residues as written; N and C are the ends. Peptide text beside a SMILES is read from it.

Legend:
GRP78:S1 interaction = molecular target: T1, GRP78:S1 interaction (Homo sapiens, UniProt P11021); test: biochemical; assay type: binding, human GRP78 / SARS-CoV-2 S1
T1 construct: The full length human GRP78 protein recombinantly produced in Escherichia coli; purchased Abcam (GRP78); Peak Proteins Ltd (S1); host or cells: Escherichia coli (GRP78); HEK293 (S1)
T1 sequence (P11021 19-654): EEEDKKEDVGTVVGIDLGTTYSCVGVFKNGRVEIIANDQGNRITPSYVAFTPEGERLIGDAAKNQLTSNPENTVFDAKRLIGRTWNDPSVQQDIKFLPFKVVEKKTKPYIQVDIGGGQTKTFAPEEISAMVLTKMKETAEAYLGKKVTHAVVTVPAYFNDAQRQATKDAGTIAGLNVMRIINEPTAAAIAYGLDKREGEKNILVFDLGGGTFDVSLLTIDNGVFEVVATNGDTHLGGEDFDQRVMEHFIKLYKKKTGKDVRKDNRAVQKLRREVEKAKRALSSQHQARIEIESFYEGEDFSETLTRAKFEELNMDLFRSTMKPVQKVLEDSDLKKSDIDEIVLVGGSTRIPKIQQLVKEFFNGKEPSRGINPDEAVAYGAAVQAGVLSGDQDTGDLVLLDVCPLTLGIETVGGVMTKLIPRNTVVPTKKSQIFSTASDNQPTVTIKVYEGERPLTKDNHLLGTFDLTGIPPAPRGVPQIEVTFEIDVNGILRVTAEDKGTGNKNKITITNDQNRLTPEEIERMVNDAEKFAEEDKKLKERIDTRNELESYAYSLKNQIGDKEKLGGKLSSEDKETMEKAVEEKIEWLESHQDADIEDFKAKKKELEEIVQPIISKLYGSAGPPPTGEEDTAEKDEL

human GRP78 = molecular target: T2, human GRP78 (Homo sapiens, UniProt P11021); test: biochemical; assay type: binding; conditions: for kon: read-out: Ka1 (association rate constant 1)
T2 construct: The full length human GRP78 protein recombinantly produced in Escherichia coli; 6xHis (inferred from capture on nickel-NTA chip); purchased Abcam (Cambridge, UK); host or cells: Escherichia coli
T2 sequence (P11021 19-654): as above

[1] = read-out: Kd1 (dissociation rate constant 1)
[2] = read-out: Kd2 (dissociation rate constant 2)

Row | Compound | IC50 (GRP78:S1 interaction) [µM] | Kd (human GRP78; KD (equilibrium dissociation constant)) [µM] | Kd (human GRP78; affinity of binding to GRP78) [µM] | kon (human GRP78) [M⁻¹ s⁻¹] | koff (human GRP78; [1]) [s⁻¹] | koff (human GRP78; [2]) [s⁻¹]
1 | CC(C)[C@@H]1NC(=O)CNC(=O)[C@H](CC(N)=O)NC(=O)[C@@H](N)CSSC[C@@H](C(N)=O)NC(=O)[C@H](CC(N)=O)NC(=O)[C@H](Cc2ccccc2)NC(=O)CNC(=O)[C@H](C)NC1=O [LCP O] (H-CNGVAGFNC-NH2; disulfide 1-9) | < 3 | 2120 | 2000 | 140 | 0.643 | 0.00182
2 | CC(C)[C@@H]1NC(=O)CNC(=O)[C@H](CC(N)=O)NC(=O)[C@@H](N)CSSC[C@@H](C(N)=O)NC(=O)[C@H](CC(N)=O)NC(=O)[C@H](Cc2ccccc2)NC(=O)CNC(=O)[C@H](CCC(=O)O)NC1=O [LCP W] (H-CNGVEGFNC-NH2; disulfide 1-9) | < 3 |  | 200 | 1670 | 0.43 | 0.03
